Measured values: patent US20230248689A1, “PHARMACEUTICAL FORMULATIONS OF GRISEOFULVIN FOR LONG-TERM OCULAR DELIVERY” (Purdue Research Foundation, priority 2020, published 2023)

How the values were obtained:
[1] = test system: human retinal endothelial cells (HRECs); experiment: Anti-proliferative effect on HRECs (Alamar Blue); assay type: cell-based; conditions: 100 μM GRF equivalent, 48 hours
Experimental: Human retinal endothelial cells (HREC) were plated in transparent 96 well plates at a density of 2500 cells per well in 100 μL of growth medium and incubated for 24 h at 37° C. The medium was replaced with the samples collected at different time points. After 48 hours incubation, 11.1 μL Alamar Blue reagent was added to each well. After 4 hours incubation, plates were centrifuged at 200 g for 5 minutes, and 50 μL supernatant was transferred to black 96 well plates. Fluorescence intensity of each well was read with excitation and emission wavelengths of 560 nm and 590 nm, respectively.

[2] = test system: human retinal endothelial cells (HREC); experiment: Long-term proliferation assay on HRECs with release samples collected over time; assay type: cell-based
Experimental: The formulations of the present invention, i.e. microparticles (MPs) or nanoparticles (NPs) of the griseofulvin (GRF) were tested for in vitro cell study, in particular long-term proliferation assay. This study provides an estimation of in vivo effect of griseofulvin formulations. To compare the long-term antiproliferative effect on human retinal endothelial cells (HREC), time averaged proliferation inhibition index (PII) was calculated (Σ AUC/time) from the plot of % proliferation at each time vs. time. The higher the PII indicating the prolonged anti-proliferative effects on HREC.
The long-term anti-proliferation effect of GRF loaded NPs from example 3B was studied, wherein GRF-PLGA-NPs were dispersed in 0.5 mL of growth media at GRF concentration ranging from 600 μM to 1200 μM. At specific time points (1, 2, 3, 4, 5, 6, 7, 10, 15, 20, and 25 days), tubes were centrifuged at 5k rpm for 5 minutes and the supernatant was collected and stored at −80° C. Pellet was redispersed in 0.5 mL fresh media, and the incubation was continued. […]
Human retinal endothelial cells (HREC) were plated in transparent 96 well plates at a density of 2500 cells per well in 100 μL of growth medium and incubated for 24 h at 37° C. […] Fluorescence intensity of each well was read with excitation and emission wavelengths of 560 nm and 590 nm, respectively. […]

With COC1=CC(=O)C[C@@H](C)[C@]12Oc1c(Cl)c(OC)cc(OC)c1C2=O [Free GRF, (2S,6′R)-7-chloro-2′,4,6-trimethoxy-6′-methyl-3H-spiro[benzofuran-2,1′-cyclohexan]-2′-ene-3,4′-dione] the “inhibited proliferation of HRECs” value [1] was 53.5%, the “long-term anti-proliferative effect on HREC (in words)” value ([2]; release samples over the incubation period) was “effective only at the first time point” and the “time averaged proliferation inhibition index (PII)” value ([2]; Σ AUC/time from % proliferation vs. time plot, HREC) was 13.6.
